Assay [1] deals with 2-phenyl-1,4-benzoquinone-induced writhing. Put plainly: 2-phenyl-1,4-benzoquinone-induced writhing test (analgesia). The format is in vivo, mice. Particulars: Mus musculus, po. From the text:
Compounds of the present invention are also useful as analgesic agents due to their ability to alleviate pain in mammals. […] Exptl. Biol. Med., 95, 729 (1957)].

Assay [2] deals with carrageenin induced rat paw edema. Put plainly: carrageenin induced rat paw edema anti-inflammatory assay. The format is in vivo. Particulars: for inhibition at 20 mg/kg: read-out: Time Response at 20 mg/kg % Inhibition; for ED50: po; for inhibition at 25 mg/kg: read-out: Time Response at 25 mg/kg % Inhibition. The text has this: The compounds of the present invention are useful as anti-inflammatory agents due to their ability to suppress inflammation in mammals. […] Exptl. Biol. Med., III 544 (1962), J. Pharmacol. Exp. 141 […]] .

[3] abbreviates: analgesic data, read-out: ED50 (p.o.).
[4] abbreviates: pretreatment 6 hrs, read-out: ED50.

The structures appear in SMILES notation. Read-outs that look alike come from different tables or passages of the source.

Regarding `O=C(CCCc1ccc2c(c1)C(=O)c1sccc1CO2)OCC(O)CO` (racemic) [1-[(4,10-Dihydro-10-oxothieno[3,2-c][1]-benzoxepin-8-yl)-4-butyryl] glyceride], the median effective dose (ED50) in assay [1] (setting [3]) worked out at 9.4 mg/kg.

On to `CC(CCC(=O)O)c1ccc2c(c1)C(=O)c1sccc1CO2` (racemic) [(±)-4-(4,10-Dihydro-10-oxothieno[3,2-c][1]benzoxepin-8-yl)pentanoic acid], for which the inhibition at 20 mg/kg in assay [2] (pretreatment time 1 hr.) came out at 25%; in assay [2] (pretreatment time 2 hrs.), 23%; in assay [2] (pretreatment time 4 hrs) it was 28%.

`CC1(C)OCC(COC(=O)CCCc2ccc3c(c2)C(=O)c2sccc2CO3)O1` (racemic) [(±)[2,2-Dimethyl-1,3-dioxolan-4-yl]methyl 4-[4,10-dihydro-10-oxothieno[3,2-c][1]benzoxepin-8-yl]butyrate]: the inhibition at 20 mg/kg in assay [2] (pretreatment time 2 hrs.) stood at 20%; in assay [2] (pretreatment time 6 hrs) it was 61%; in assay [2] (pretreatment time 18 hrs) it was 32%; in assay [2] (pretreatment time 24 hrs) it was 41%. Also, the ED50 in assay [2] (setting [4]) was found to be 14.5 mg/kg; in assay [1] (setting [3]) it was 11.2 mg/kg.

For the molecule `CC(C)OC(=O)CCCc1ccc2c(c1)C(=O)c1sccc1CO2` [4-(4,10-Dihydro-10-oxothieno[3,2-c][1]benzoxepin-8-yl)-butyric acid isopropyl ester], the inhibition at 20 mg/kg amounted to 31% in assay [2] (pretreatment time 2 hrs.), 71% in assay [2] (pretreatment time 6 hrs), 57% in assay [2] (pretreatment time 18 hrs) and 26% in assay [2] (pretreatment time 24 hrs). In addition, the median effective dose (ED50) in assay [2] (pretreatment 2 hrs, estimated, read-out: Estimated ED50) is 21.8 mg/kg; in assay [1] (setting [3]), 8.5 mg/kg.

Take `COC(=O)CCCc1ccc2c(c1)C(=O)c1sccc1CO2` [4-(4,10-Dihydro-10-oxothieno[3,2-c][1]benzoxepin-8-yl)-butyric acid methyl ester]: the inhibition at 20 mg/kg was 24% in assay [2] (pretreatment time 2 hrs.), 54% in assay [2] (pretreatment time 6 hrs), 62% in assay [2] (pretreatment time 8 hrs) and 16% in assay [2] (pretreatment time 24 hrs). Moreover, the ED50 was determined as 10.3 mg/kg in assay [2] (setting [4]) and 10.8 mg/kg in assay [1] (setting [3]).

For `O=C(O)CCCc1ccc2c(c1)C(=O)c1sccc1CO2` [4-(4,10-dihydro-10-oxothieno[3,2-c][1]benzoxepin-8-yl)-butyric acid], the inhibition at 25 mg/kg is 49% in assay [2] (pretreatment time 0.5 hr.); 52% in assay [2] (pretreatment time 1 hr); 79% in assay [2] (pretreatment time 2 hrs.); 94% in assay [2] (pretreatment time 3 hrs); 95% in assay [2] (pretreatment time 4 hrs); 67% in assay [2] (pretreatment time 6 hrs). In addition, in assay [2] (pretreatment time 8 hrs), the inhibition at 25 mg/kg was 47%. The ED50 in assay [2] (1 h, p.o., pretreatment 60 min, read-out: ED50) came to 77.9 mg/kg.

In the case of `CCOC(=O)CCCc1ccc2c(c1)C(=O)c1sccc1CO2` [Ethyl 4-[4,10-dihydro-10-oxothieno[3,2-c][1]benzoxepin-8-yl]butyrate], the inhibition at 20 mg/kg was 40% in assay [2] (pretreatment time 2 hrs.), 48% in assay [2] (pretreatment time 6 hrs), 15% in assay [2] (pretreatment time 18 hrs) and 22% in assay [2] (pretreatment time 24 hrs). Besides, the 50% effective dose (ED50) in assay [1] (setting [3]) amounted to 8.2 mg/kg.

Turning to `CC1=C(CC(=O)O)c2cc(F)ccc2/C1=C\c1ccc([S+](C)[O-])cc1` (stereo not shown) [sulindac, reference compound], the ED50 in assay [2] (in a similar test, read-out: anti-inflammatory ED50) stood at 10.7 mg/kg; in assay [1] (in a similar test, read-out: analgesic ED50) it was 6.2 mg/kg.

`CC(C)(C)OC(=O)CCCc1ccc2c(c1)C(=O)c1sccc1CO2` [t-Butyl 4-[4,10-dihydro-10-oxothieno-[3,2-c][1]benzoxepin-8-yl]butyrate]: the inhibition at 20 mg/kg in assay [2] (pretreatment time 1 hr.) came to 42%; in assay [2] (pretreatment time 2 hrs.), 49%; in assay [2] (pretreatment time 4 hrs) it was 43%.

Values taken from patent EP0118867A2, “Substituted 4,10-dihydro-10-oxothieno benzoxepins, a method of preparing the same and intermediate thereof and their use as medicaments” (HOECHST-ROUSSEL PHARMACEUTICALS INCORPORATED, priority 1983, dated 1984).
